Test system: summer barley (HORVS)
Experiment: Reduction of damage by mesosulfuron-methyl on summer barley (safener greenhouse test, post-emergence)
Assay type: in vivo, summer barley (HORVS; cv. Montoya)
Design: key: 0: no reduction in damage (appearance corresponding to the herbicide control); 1: slight reduction in damage; 2: distinct reduction in damage; 3: significant reduction in damage; 4: complete reduction in damage (appearance corresponding to the untreated control)
Settings: safener dose 500 g/ha, sprayed at BBCH10-12, followed by mesosulfuron-methyl 40-60 g/ha, visual assessment 9-13 days after application, 2 repeats
Method: 2.1 Relative Action of Selected Compounds of the Invention Using the Example of Reduction of Damage by Mesosulfuron-Methyl on Summer Barley (HORVS) The seeds of the crop plants to be treated are laid out in sandy loam in plastic pots (diameter ˜4 cm), covered with soil and grown in a greenhouse under good conditions for germination and growth. The trial plants were treated at the early leaf stage (BBCH10-BBCH12). In the course of this, the inventive compounds of the general formula (I) formulated in the form of wettable powders (WP) were sprayed onto the above-ground parts of the plants as an aqueous suspension with a water application rate corresponding to 800 l/ha with addition of wetting agent (e.g. 0.2% Genapol-LRO or 0.2% Mero) in the specified dose. This was followed by the application of the herbicide. For this purpose, mesosulfuron-methyl, formulated in the form of water-dispersible granules (WG), was sprayed onto the above-ground parts of the plants in the form of an aqueous dispersion with a water application rate corresponding to 800 l/ha with addition of wetting agent (e.g. 0.2% Genapol-LRO or 1 l/ha Biopower) in a dose of 40-60 g/ha. […] 9-13 days after application, the efficacy of the test compounds was assessed visually. […]

COC(=O)COc1nc(-c2ccc(F)cc2F)n(-c2ccc(F)cn2)n1 [I.40-11, Methyl {[5-(2,4-difluorophenyl)-1-(5-fluoropyridin-2-yl)-1H-1,2,4-triazol-3-yl]oxy}acetate]
Efficacy of the safener (efficacy code): 2

Source: patent publication US12617760B2, “[(5-phenyl-1-heteroaryl-1H-triazol-3-yl)oxy] acetic acid derivatives as safeners for the protection of useful plants and crop plants” (BAYER AKTIENGESELLSCHAFT, priority 2020, dated 2026)
